# Measured values: US20090170812A1, “Transcription factor modulating compounds and methods of use thereof” (priority 2006, published 2009)
# Assays:
# [1] = test system: Yersinia pseudotuberculosis
# [2] = biological target: LcrF (VirF) (Yersinia pestis, UniProt P28808); assay: biochemical; type: binding, Y. pseudotuberculosis
# [3] = biological target: T1, ExsA (Pseudomonas aeruginosa, UniProt P26993); assay: In vitro activity of Mar inhibitors against ExsA: cell-free DNA binding assay; conditions: purified ExsA from P. aeruginosa, inhibition of DNA binding in vitro
# T1 construct: made in house
# T1 sequence (P26993 1-278): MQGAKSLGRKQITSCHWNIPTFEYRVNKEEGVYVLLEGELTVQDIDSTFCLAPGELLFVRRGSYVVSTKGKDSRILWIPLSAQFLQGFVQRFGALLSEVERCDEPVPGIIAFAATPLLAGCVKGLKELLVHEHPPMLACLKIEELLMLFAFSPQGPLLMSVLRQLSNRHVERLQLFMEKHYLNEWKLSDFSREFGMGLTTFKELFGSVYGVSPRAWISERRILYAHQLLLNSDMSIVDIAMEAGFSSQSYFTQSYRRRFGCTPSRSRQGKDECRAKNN
# [4] = test system: P. aeruginosa; assay: Whole cell assay: cytotoxicity of P. aeruginosa toward J774 cells (CytoTox 96, LDH release); conditions: percent cytotoxicity of treated P. aeruginosa toward J774 cells
# Chain of LcrF (VirF) (P28808 whole entry, looked up): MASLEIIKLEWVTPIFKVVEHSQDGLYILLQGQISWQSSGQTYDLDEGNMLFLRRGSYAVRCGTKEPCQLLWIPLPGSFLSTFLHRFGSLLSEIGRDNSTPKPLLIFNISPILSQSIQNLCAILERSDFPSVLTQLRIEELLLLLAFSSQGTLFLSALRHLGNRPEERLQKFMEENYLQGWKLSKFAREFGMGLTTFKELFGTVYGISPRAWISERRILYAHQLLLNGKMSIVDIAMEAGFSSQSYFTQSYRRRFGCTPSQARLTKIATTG
SMILES,Cytotoxicity at 50 μg/mL Yersinia [1],EC50 [2] [µM],EC50 [3] [µM],Cytotoxicity at 50 μg/mL Pseudomonas [4]
CCc1cc(-c2nc3ccc([N+](=O)[O-])cc3n2O)ccc1NC(=O)c1ccc(C(C)=O)cc1 [AA],* (key: *: percent cytotoxicity above 75% at 50 μg/mL; **: cytotoxicities below 75% at 50 μg/mL),10.1 to 25,10.1 to 25,* (percent cytotoxicities above 75% at 50 mg/mL)
O=C(Nc1ccc(-c2nc3ccc([N+](=O)[O-])cc3n2O)nc1)c1ccc(F)cc1 [AF],* (key: *: percent cytotoxicity above 75% at 50 μg/mL; **: cytotoxicities below 75% at 50 μg/mL),> 25.1,> 25.1,
O=C(Nc1ccc(-c2nc3ccc([N+](=O)[O-])cc3n2OCP(=O)(O)O)cc1)c1ccc(F)cc1 [AK],* (key: *: percent cytotoxicity above 75% at 50 μg/mL; **: cytotoxicities below 75% at 50 μg/mL),,,
CCOP(=O)(COn1c(-c2ccc(NC(=O)c3ccc(F)cc3)cc2)nc2ccc([N+](=O)[O-])cc21)OCC [AU],* (key: *: percent cytotoxicity above 75% at 50 μg/mL; **: cytotoxicities below 75% at 50 μg/mL),,,
O=C(Nc1ccc(-c2nc3ccncc3n2O)cc1)c1ccc(F)cc1 [AX],* (key: *: percent cytotoxicity above 75% at 50 μg/mL; **: cytotoxicities below 75% at 50 μg/mL),,,
O=C(/C=C/c1ccc(F)cc1)Nc1ccc(-c2nc3ccncc3n2O)cc1 [AY],* (key: *: percent cytotoxicity above 75% at 50 μg/mL; **: cytotoxicities below 75% at 50 μg/mL),,,
Cc1cc(-c2nc3ccc([N+](=O)[O-])cc3n2O)ccc1NC(=O)/C=C/c1ccc(F)cc1 [BB],* (key: *: percent cytotoxicity above 75% at 50 μg/mL; **: cytotoxicities below 75% at 50 μg/mL),10.1 to 25,> 25.1,
O=C(Nc1ccc(-c2nc3ccc([N+](=O)[O-])cc3n2O)cc1)c1ccc2c(c1)CCCC2=O [BD],* (key: *: percent cytotoxicity above 75% at 50 μg/mL; **: cytotoxicities below 75% at 50 μg/mL),> 25.1,> 25.1,
CC(=O)c1ccc(C(=O)Nc2ccc(-c3nc4ccc([N+](=O)[O-])cc4n3O)cc2C)cc1 [BF],* (key: *: percent cytotoxicity above 75% at 50 μg/mL; **: cytotoxicities below 75% at 50 μg/mL),,< 10,
CN(C)C(=O)c1ccc(C(=O)Nc2ccc(-c3nc4ccc([N+](=O)[O-])cc4n3O)cc2)cc1 [BP],* (key: *: percent cytotoxicity above 75% at 50 μg/mL; **: cytotoxicities below 75% at 50 μg/mL),,,* (percent cytotoxicities above 75% at 50 mg/mL)
CN(C)CCN(C)c1cc2nc(-c3ccc(NC(=O)/C=C/c4ccc(F)cc4)cc3)n(O)c2cc1[N+](=O)[O-] [CE],,< 10,< 10,** (cytotoxicities below 75% at 50 mg/mL)
CN1CCN(CCOc2cc3nc(-c4ccc(NC(=O)/C=C/c5ccc(F)cc5)cc4)n(O)c3cc2[N+](=O)[O-])CC1 [CF],,< 10,< 10,* (percent cytotoxicities above 75% at 50 mg/mL)
CN(C)CCOc1cc2nc(-c3ccc(NC(=O)/C=C/c4ccc(F)cc4)cc3)n(O)c2cc1[N+](=O)[O-] [CG],,,> 25.1,* (percent cytotoxicities above 75% at 50 mg/mL)
O=C(/C=C/c1ccc(F)cc1)Nc1ccc(-c2nc3ccc(-n4ccnc4)cc3n2O)cc1 [CH],,> 25.1,10.1 to 25,* (percent cytotoxicities above 75% at 50 mg/mL)
CC(=O)c1ccc(/C=C/C(=O)Nc2ccc(-c3nc4cc(OCCN5CCN(C)CC5)c([N+](=O)[O-])cc4n3O)cc2)cc1 [CI],,< 10,< 10,** (cytotoxicities below 75% at 50 mg/mL)
CC(=O)c1ccc(/C=C/C(=O)Nc2ccc(-c3nc4cc(OCCN5CCOCC5)c([N+](=O)[O-])cc4n3O)cc2)cc1 [CJ],,,,** (cytotoxicities below 75% at 50 mg/mL)
CC(=O)c1ccc(/C=C/C(=O)Nc2ccc(-c3nc4ccc(C#N)cc4n3O)cc2)cc1 [CK],,10.1 to 25,10.1 to 25,** (cytotoxicities below 75% at 50 mg/mL)

SMILES,Cytotoxicity at 50 μg/mL Yersinia [1],EC50 [2] [µM],EC50 [3] [µM],Cytotoxicity at 50 μg/mL Pseudomonas [4]
N#Cc1ccc2nc(-c3ccc(NC(=O)c4ccc(-n5ccnc5)cc4)cc3)n(O)c2c1 [CO],,10.1 to 25,> 25.1,** (cytotoxicities below 75% at 50 mg/mL)
"NC(=O)c1ccc2nc(-c3ccc(NC(=O)c4ccc(F)cc4)cc3)n(O)c2c1 [Compound AD, 2-[4-(4-Fluoro-benzoylamino)-phenyl]-3-hydroxy-3H-benzoimidazole-5-carboxylic Acid Amide]",* (key: *: percent cytotoxicity above 75% at 50 μg/mL; **: cytotoxicities below 75% at 50 μg/mL),,,
"O=C(Nc1ccc(-c2nc3ccc([N+](=O)[O-])cc3n2O)c(OCP(=O)(O)O)c1)c1ccc(F)cc1 [Compound AR, [5-(4-Fluoro-benzoylamino)-2-(1-hydroxy-6-nitro-1H-benzoimidazol-2-yl)-phenoxymethyl]-phosphonic Acid]",* (key: *: percent cytotoxicity above 75% at 50 μg/mL; **: cytotoxicities below 75% at 50 μg/mL),,,
"O=C(/C=C/c1ccc(-n2ccnc2)cc1)Nc1ccc(-c2nc3ccc([N+](=O)[O-])cc3n2O)cc1 [Compound BK, (E)-N-[4-(1-Hydroxy-6-nitro-1H-benzoimidazol-2-yl)-phenyl]-3-(4-imidazol-1-yl-phenyl)-acrylamide]",** (key: *: percent cytotoxicity above 75% at 50 μg/mL; **: cytotoxicities below 75% at 50 μg/mL),,< 10,** (cytotoxicities below 75% at 50 mg/mL)
"O=C(/C=C/c1ccc(F)cc1)Nc1ccc(-c2nc3cc(F)c([N+](=O)[O-])cc3n2O)cc1 [Compound BO, N-[4-(5-Fluoro-1-hydroxy-6-nitro-1H-benzoimidazol-2-yl)-phenyl]-3-(4-fluoro-cinnamyl)-amide]",,> 25.1,> 25.1,** (cytotoxicities below 75% at 50 mg/mL)
"CC(=O)c1ccc(/C=C/C(=O)Nc2ccc(-c3nc4ccc([N+](=O)[O-])cc4n3O)cc2)cc1 [Compound BQ, (E)-3-(4-Acetyl-phenyl)-N-[4-(1-hydroxy-6-nitro-1H-benzoimidazol-2-yl)-phenyl]-acrylamide]",,10.1 to 25,< 10,** (cytotoxicities below 75% at 50 mg/mL)
"O=C(/C=C/c1ccc(F)cc1)Nc1ccc(-c2nc3ccc(-n4cccn4)cc3n2O)cc1 [Compound CL, (E)-3-(4-Fluoro-phenyl)-N-[4-(1-hydroxy-6-pyrazol-1-yl-1H-benzoimidazol-2-yl)-phenyl]-acrylamide]",,> 25.1,> 25.1,* (percent cytotoxicities above 75% at 50 mg/mL)
"CC(=O)c1ccc(C(=O)Nc2ccc(-c3nc4ccc(-n5cccn5)cc4n3O)cc2)cc1 [Compound CM, 4-Acetyl-N-[4-(1-hydroxy-6-pyrazol-1-yl-1H-benzoimidazol-2-yl)-phenyl]-benzamide]",,,,* (percent cytotoxicities above 75% at 50 mg/mL)
"CC(=O)c1ccc(C(=O)Nc2ccc(-c3nc4ccc(-n5ccnc5)cc4n3O)cc2)cc1 [Compound CN, 4-Acetyl-N-[4-(1-hydroxy-6-imidazol-1-yl-1H-benzoimidazol-2-yl)-phenyl]-benzamide]",,,,* (percent cytotoxicities above 75% at 50 mg/mL)
"O=C(O)COn1c(-c2ccc(NC(=O)c3ccc(F)cc3)cc2)nc2ccc([N+](=O)[O-])cc21 [Compound V, {2-[4-(4-Fluoro-benzoylamino)-phenyl]-6-nitro-benzoimidazol-1-yloxy}-acetic Acid]",* (key: *: percent cytotoxicity above 75% at 50 μg/mL; **: cytotoxicities below 75% at 50 μg/mL),> 25.1,,
CC(C)c1ccc(/C=C/C(=O)Nc2ccc(-c3nc4ccc([N+](=O)[O-])cc4n3O)cc2)cc1 [H],* (key: *: percent cytotoxicity above 75% at 50 μg/mL; **: cytotoxicities below 75% at 50 μg/mL),> 25.1,> 25.1,
C/C(=C\c1ccccc1)C(=O)Nc1ccc(-c2nc3ccc([N+](=O)[O-])cc3n2O)cc1 [I],* (key: *: percent cytotoxicity above 75% at 50 μg/mL; **: cytotoxicities below 75% at 50 μg/mL),> 25.1,,
O=C(Nc1ccc2nc(-c3ccc([N+](=O)[O-])cc3)n(O)c2c1)c1ccc(F)cc1 [L],* (key: *: percent cytotoxicity above 75% at 50 μg/mL; **: cytotoxicities below 75% at 50 μg/mL),,,
NC(=NO)c1ccc2nc(-c3ccc(NC(=O)c4ccc(F)cc4)cc3)n(O)c2c1 [M],* (key: *: percent cytotoxicity above 75% at 50 μg/mL; **: cytotoxicities below 75% at 50 μg/mL),> 25.1,> 25.1,
O=C(C/C=C/c1ccccc1)Nc1ccc(-c2nc3ccc([N+](=O)[O-])cc3n2O)cc1 [N],* (key: *: percent cytotoxicity above 75% at 50 μg/mL; **: cytotoxicities below 75% at 50 μg/mL),> 25.1,,* (percent cytotoxicities above 75% at 50 mg/mL)
CC(=NO)c1ccc2nc(-c3ccc(NC(=O)c4ccc(N(C)C)cc4)cc3)n(O)c2c1 [U],* (key: *: percent cytotoxicity above 75% at 50 μg/mL; **: cytotoxicities below 75% at 50 μg/mL),> 25.1,> 25.1,
CCc1cc(-c2nc3ccc([N+](=O)[O-])cc3n2O)ccc1NC(=O)c1ccc(F)cc1 [Z],* (key: *: percent cytotoxicity above 75% at 50 μg/mL; **: cytotoxicities below 75% at 50 μg/mL),10.1 to 25,> 25.1,
